Patent US20180148418A1, “AMIDO-SUBSTITUTED CYCLOHEXANE DERIVATIVES” (Bayer Pharma Aktiengesellschaft, priority 2015, published 2018)

What follows are molecules tested against T1, TNKS2 (Homo sapiens, UniProt Q9H2K2) (assay: TNKS2 Assay B (auto-parsylation, [3H]-NAD+ SPA)). Details: 6 nM TNKS2, auto-parsylation, over night at room temperature.
T1 construct: purchased BPS Bioscience, San Diego, USA 80572 (TNKS2 Histone Ribosylation Assay Kit)
T1 sequence (Q9H2K2 1-1166): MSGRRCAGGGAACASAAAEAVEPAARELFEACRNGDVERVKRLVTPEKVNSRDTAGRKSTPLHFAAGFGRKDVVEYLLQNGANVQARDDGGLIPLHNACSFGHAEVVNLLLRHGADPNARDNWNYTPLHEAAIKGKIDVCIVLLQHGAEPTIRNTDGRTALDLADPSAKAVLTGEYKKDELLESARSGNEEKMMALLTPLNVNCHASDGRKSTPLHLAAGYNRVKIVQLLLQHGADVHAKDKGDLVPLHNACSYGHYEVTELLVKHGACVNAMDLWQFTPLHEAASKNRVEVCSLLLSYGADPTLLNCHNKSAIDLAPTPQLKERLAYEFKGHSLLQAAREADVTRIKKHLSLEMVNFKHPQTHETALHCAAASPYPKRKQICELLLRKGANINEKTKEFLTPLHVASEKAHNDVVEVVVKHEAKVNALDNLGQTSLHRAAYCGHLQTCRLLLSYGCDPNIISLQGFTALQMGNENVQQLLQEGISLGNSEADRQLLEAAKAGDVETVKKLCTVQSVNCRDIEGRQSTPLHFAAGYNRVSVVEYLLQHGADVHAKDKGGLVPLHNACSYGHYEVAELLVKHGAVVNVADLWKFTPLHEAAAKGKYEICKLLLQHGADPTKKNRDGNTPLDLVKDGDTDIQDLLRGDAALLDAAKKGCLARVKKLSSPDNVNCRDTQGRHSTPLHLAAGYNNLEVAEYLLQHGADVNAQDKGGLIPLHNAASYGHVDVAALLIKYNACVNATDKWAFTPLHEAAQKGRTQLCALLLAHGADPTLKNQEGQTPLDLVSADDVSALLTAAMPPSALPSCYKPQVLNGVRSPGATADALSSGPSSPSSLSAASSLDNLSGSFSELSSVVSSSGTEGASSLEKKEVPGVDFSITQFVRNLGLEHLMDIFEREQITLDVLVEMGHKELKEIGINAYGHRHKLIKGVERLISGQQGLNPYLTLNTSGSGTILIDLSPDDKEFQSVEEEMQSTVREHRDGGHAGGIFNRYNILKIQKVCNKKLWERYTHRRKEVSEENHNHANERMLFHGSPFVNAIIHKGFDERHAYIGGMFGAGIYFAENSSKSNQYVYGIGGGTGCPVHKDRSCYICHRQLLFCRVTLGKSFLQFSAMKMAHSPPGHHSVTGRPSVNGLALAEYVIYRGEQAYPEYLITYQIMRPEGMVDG
Assay type: biochemical

Structure (SMILES) | IC50 [nM]
CC(C)NC(=O)c1nc[nH]c1C(=O)N[C@H]1CC[C@@]2(CCN(c3cccc(Cl)c3)C2=O)CC1 [Example 278, N^5-[(trans)-2-(3-chlorophenyl)-1-oxo-2-azaspiro[4.5]dec-8-yl]-N^4-(propan-2-yl)-1H-imidazole-4,5-dicarboxamide] | 170
Cc1cc(C)n2ncc(C(=O)N[C@H]3CC[C@@]4(CCN(c5cccc(Cl)c5)C4=O)CC3)c2n1 [Example 270, N-[(trans)-2-(3-chlorophenyl)-1-oxo-2-azaspiro[4.5]dec-8-yl]-5,7-dimethylpyrazolo[1,5-a]pyrimidine-3-carboxamide] | 280
CCNC(=O)c1nc[nH]c1C(=O)N[C@H]1CC[C@@]2(CCN(c3cccc(Cl)c3)C2=O)CC1 [Example 277, N^5-[(trans)-2-(3-chlorophenyl)-1-oxo-2-azaspiro[4.5]dec-8-yl]-N^4-ethyl-1H-imidazole-4,5-dicarboxamide] | 150
C[C@]1(C(=O)Nc2ccc(F)cc2Cl)CC[C@H](NC(=O)c2cnn3cccnc23)CC1 [Example 179, N-{trans-4-[(2-chloro-4-fluorophenyl)carbamoyl]-4-methylcyclohexyl}pyrazolo[1,5-a]pyrimidine-3-carboxamide] | 330
O=C(N[C@H]1CC[C@@]2(CCN(c3ccc(F)cc3)C2=O)CC1)c1cnn2cccnc12 [Example 209, N-[(trans)-2-(4-fluorophenyl)-1-oxo-2-azaspiro[4.5]dec-8-yl]pyrazolo[1,5-a]pyrimidine-3-carboxamide] | 240
O=C(N[C@H]1CC[C@@]2(CCN(c3cccc(Cl)c3)C2=O)CC1)c1[nH]cnc1C(=O)N1CC(F)C1 [Example 280, N-[(trans)-2-(3-chlorophenyl)-1-oxo-2-azaspiro[4.5]dec-8-yl]-4-[(3-fluoroazetidin-1-yl)carbonyl]-1H-imidazole-5-carboxamide] | 94
CNC(=O)c1nc[nH]c1C(=O)N[C@H]1CC[C@H](C(=O)N(C)c2ccc(F)cc2)CC1 [Example 172, N^5-{trans-4-[(4-fluorophenyl)(methyl)carbamoyl]cyclohexyl}-N^4-methyl-1H-imidazole-4,5-dicarboxamide] | 510
Cc1cc(C)n2ncc(C(=O)N[C@H]3CC[C@]4(CCN(c5ccc(F)cc5)C4=O)CC3)c2n1 [Example 208, N-[(cis)-2-(4-fluorophenyl)-1-oxo-2-azaspiro[4.5]dec-8-yl]-5,7-dimethyl pyrazolo[1,5-a]pyrimidine-3-carboxamide] | 3200
O=C(N[C@H]1CC[C@@]2(CCN(c3cccc(Cl)c3)C2=O)CC1)c1cnn2cccnc12 [Example 268, N-[(trans)-2-(3-chlorophenyl)-1-oxo-2-azaspiro[4.5]dec-8-yl]pyrazolo[1,5-a]pyrimidine-3-carboxamide] | 230
O=C(N[C@H]1CC[C@@]2(CCN(c3ccc(F)cc3Cl)C2=O)CC1)c1[nH]cnc1C(=O)N1CCN(CC(F)(F)F)CC1 [Example 167, N-[(trans)-2-(2-chloro-4-fluorophenyl)-1-oxo-2-azaspiro[4.5]dec-8-yl]-4-{[4-(2,2,2-trifluoroethyl)piperazin-1-yl]carbonyl}-1H-imidazole-5-carboxamide] | 270
O=C(NCCO)c1nc[nH]c1C(=O)N[C@H]1CC[C@H](C(=O)Nc2ccc(F)cc2Cl)CC1 [Example 18, N^5-{trans-4-[(2-chloro-4-fluorophenyl)carbamoyl]cyclohexyl}-N^4-(2-hydroxyethyl)-1H-imidazole-4,5-dicarboxamide] | 120

Further molecules by falling IC50, results first:

IC50 [nM] | Structure (SMILES)
92 | Cc1cnc2c(C(=O)N[C@H]3CC[C@@]4(CCN(c5ccc(F)cc5)C4=O)CC3)cnn2c1 [Example 210, N-[(trans)-2-(4-fluorophenyl)-1-oxo-2-azaspiro[4.5]dec-8-yl]-6-methylpyrazolo[1,5-a]pyrimidine-3-carboxamide]
25 | O=C(N[C@H]1CC[C@@]2(CCN(c3ccc(F)cc3Cl)C2=O)CC1)c1cnn2c(C(F)(F)F)ccnc12 [Example 233, N-[(trans)-2-(2-chloro-4-fluorophenyl)-1-oxo-2-azaspiro[4.5]dec-8-yl]-7-(trifluoromethyl)pyrazolo[1,5-a]pyrimidine-3-carboxamide]
11 | Cc1cc(C(F)F)n2ncc(C(=O)N[C@H]3CC[C@@]4(CCN(c5ccc(F)cc5Cl)C4=O)CC3)c2n1 [Example 224, N-[(trans)-2-(2-chloro-4-fluorophenyl)-1-oxo-2-azaspiro[4.5]dec-8-yl]-7-(difluoromethyl)-5-methylpyrazolo[1,5-a]pyrimidine-3-carboxamide]
7.1 | O=C(N[C@H]1CC[C@@]2(CCN(c3ccc(F)cc3Cl)C2=O)CC1)c1nc[nH]c1C(=O)NCC(F)(F)F [Example 195, N^4-[(trans)-2-(2-chloro-4-fluorophenyl)-1-oxo-2-azaspiro[4.5]dec-8-yl]-N^5-(2,2,2-trifluoroethyl)-1H-imidazole-4,5-dicarboxamide]
6.8 | Cc1cc(C)n2ncc(C(=O)N[C@H]3CC[C@@]4(CCN(c5cc(C)c(F)cc5Cl)C4=O)CC3)c2n1 [Example 266, N-[(trans)-2-(2-chloro-4-fluoro-5-methylphenyl)-1-oxo-2-azaspiro[4.5]dec-8-yl]-5,7-dimethylpyrazolo[1,5-a]pyrimidine-3-carboxamide]
5.9 | O=C(N[C@H]1CC[C@@]2(CCN(c3ccccc3Cl)C2=O)CC1)c1cnc2cccnn12 [Example 271, N-[(trans)-2-(2-chlorophenyl)-1-oxo-2-azaspiro[4.5]dec-8-yl]imidazo[1,2-b]pyridazine-3-carboxamide]
4.8 | COc1ccn2ncc(C(=O)N[C@H]3CC[C@@]4(CCN(c5ccc(F)cc5Cl)C4=O)CC3)c2n1 [Example 218, N-[(trans)-2-(2-chloro-4-fluorophenyl)-1-oxo-2-azaspiro[4.5]dec-8-yl]-5-methoxypyrazolo[1,5-a]pyrimidine-3-carboxamide]
4.8 | Cc1cc(N2CC[C@]3(CC[C@@H](NC(=O)c4cnc5cccnn45)CC3)C2=O)c(Cl)cc1F [Example 265, N-[(trans)-2-(2-chloro-4-fluoro-5-methylphenyl)-1-oxo-2-azaspiro[4.5]dec-8-yl]imidazo[1,2-b]pyridazine-3-carboxamide]
2.9 | COCCNC(=O)c1nc[nH]c1C(=O)N[C@H]1CC[C@@]2(CCN(c3cc(F)c(F)cc3Cl)C2=O)CC1 [Example 202, N^5-[(trans)-2-(2-chloro-4,5-difluorophenyl)-1-oxo-2-azaspiro[4.5]dec-8-yl]-N^4-(2-methoxyethyl)-1H-imidazole-4,5-dicarboxamide]
2.6 | O=C(N[C@H]1CC[C@@]2(CCN(c3cc(F)c(F)cc3Cl)C2=O)CC1)c1[nH]cnc1C(=O)N1CC(F)C1 [Example 200, N-[(trans)-2-(2-chloro-4,5-difluorophenyl)-1-oxo-2-azaspiro[4.5]dec-8-yl]-4-[(3-fluoroazetidin-1-yl)carbonyl]-1H-imidazole-5-carboxamide]
2.5 | CC(C)(C)OC(=O)N1CCN(c2ccn3ncc(C(=O)N[C@H]4CC[C@@]5(CCN(c6ccc(F)cc6Cl)C5=O)CC4)c3n2)CC1 [Example 225, tert-butyl 4-(3-{[(trans)-2-(2-chloro-4-fluorophenyl)-1-oxo-2-azaspiro[4.5]dec-8-yl]carbamoyl}pyrazolo[1,5-a]pyrimidin-5-yl)piperazine-1-carboxylate]
2.4 | CNC(=O)c1nc[nH]c1C(=O)N[C@H]1CC[C@@]2(CCN(c3cc(F)c(F)cc3Cl)C2=O)CC1 [Example 196, N^5-[(trans)-2-(2-chloro-4,5-difluorophenyl)-1-oxo-2-azaspiro[4.5]dec-8-yl]-N^4-methyl-1H-imidazole-4,5-dicarboxamide]
2.2 | CNc1ccn2ncc(C(=O)N[C@H]3CC[C@@]4(CCN(c5ccc(F)cc5Cl)C4=O)CC3)c2n1 [Example 215, N-[(trans)-2-(2-chloro-4-fluorophenyl)-1-oxo-2-azaspiro[4.5]dec-8-yl]-5-(methylamino)pyrazolo[1,5-a]pyrimidine-3-carboxamide]
1.7 | CN(C)c1ccn2ncc(C(=O)N[C@H]3CC[C@@]4(CCN(c5ccc(F)cc5Cl)C4=O)CC3)c2n1 [Example 217, N-[(trans)-2-(2-chloro-4-fluorophenyl)-1-oxo-2-azaspiro[4.5]dec-8-yl]-5-(dimethylamino)pyrazolo[1,5-a]pyrimidine-3-carboxamide]
